In ChEMBL document CHEMBL1201862, “PubChem BioAssay data set” (2004):
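Exposure lasted 48 hours, with cells grown in 96-well plates and compounds tested at five concentrations. GI50 = concentration required for 50% inhibition of growth.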 The source made the active and inactive calls. Rule as the data show it: active = GI50 up to about 1.1 µM and inactive = higher. Where a SMILES comes first, the peptide text is derived from it. [ ]: non-standard residue; d: D form. The star is where a group is joined. NMeF = CN[C@@H](Cc1ccccc1)C(=O)O; NMeV = CN[C@H](C(=O)O)C(C)C; Boc = CC(C)(C)OC(=O)*; OBn = c1ccc(CO*)cc1

Tests used:
Assay in all cases: growth of human tumour cells (NCI), 48 h
A549 = tested on: A549
BT-549 = tested on: BT-549
CAKI-1 = tested on: CAKI-1
DLD-1 = tested on: DLD-1
HCC 2998 = tested on: HCC 2998
HCT-116 = tested on: HCT-116
HCT-15 = tested on: HCT-15
HOP-92 = tested on: HOP-92
MCF7 = tested on: MCF7
NCI-H23 = tested on: NCI-H23
NCI-H460 = tested on: NCI-H460
NCI-H522 = tested on: NCI-H522
PC-3 = tested on: PC-3
SF-295 = tested on: SF-295
SF-539 = tested on: SF-539
SK-MEL-28 = tested on: SK-MEL-28
SK-MEL-2 = tested on: SK-MEL-2
SR = tested on: SR
SW-620 = tested on: SW-620
UO-31 = tested on: UO-31

SMILES	GI50 (A549)	GI50 (BT-549)	GI50 (CAKI-1)	GI50 (DLD-1)	GI50 (HCC 2998)	GI50 (HCT-116)	GI50 (HCT-15) [µM]	GI50 (HOP-92)	GI50 (MCF7)	GI50 (NCI-H23)	GI50 (NCI-H460)	GI50 (NCI-H522)	GI50 (PC-3)	GI50 (SF-295)	GI50 (SF-539)	GI50 (SK-MEL-28)	GI50 (SK-MEL-2)	GI50 (SR)	GI50 (SW-620)	GI50 (UO-31)
O=C(CCN1CCCCC1)Nc1ccc2c(c1)C(=O)c1ccc(NC(=O)CCN3CCCCC3)cc1C2=O	4.84 µM (inactive)	14.6 µM (inactive)	12.6 µM (inactive)	2.92 µM (inactive)	4.45 µM (inactive)	1.71 µM (inactive)	2.59	15.4 µM (inactive)	2.31 µM (inactive)	6.05 µM (inactive)	1.57 µM (inactive)	16.9 µM (inactive)	2.26 µM (inactive)	5.22 µM (inactive)	2.61 µM (inactive)	17.5 µM (inactive)	5.16 µM (inactive)	2.47 µM (inactive)	2.1 µM (inactive)	12.4 µM (inactive)
CCCCCC(=O)OC[n+]1ccc2c(C)c3[nH]c4ccccc4c3c(C)c2c1	0.586 µM (active)		1.82 µM (inactive)	0.45 µM (active)	0.787 µM (active)	0.373 µM (active)	0.389	2.48 µM (inactive)		0.857 µM (active)	0.142 µM (active)	1.49 µM (inactive)		0.946 µM (active)	0.817 µM (active)	1.43 µM (inactive)	3.61 µM (inactive)	0.281 µM (active)	0.446 µM (active)	2.65 µM (inactive)
O=C(O)C1=C(C(=O)O)Oc2ccccc2O1	> 100 µM (inactive)		> 100 µM (inactive)	> 100 µM (inactive)	> 100 µM (inactive)	> 100 µM (inactive)	> 100	> 100 µM (inactive)		> 100 µM (inactive)	> 100 µM (inactive)	> 100 µM (inactive)		> 100 µM (inactive)	> 100 µM (inactive)	> 100 µM (inactive)	> 100 µM (inactive)	> 100 µM (inactive)	> 100 µM (inactive)	> 100 µM (inactive)
N#CCCN(C1=NN(C(=O)CC(=O)Nc2ccc(Cl)cc2)C(c2ccccc2)C1)c1ccc(Cl)cc1 (stereo not given)	> 100 µM (inactive)		> 100 µM (inactive)	> 100 µM (inactive)	> 100 µM (inactive)	> 100 µM (inactive)	> 100	> 100 µM (inactive)		> 100 µM (inactive)	> 100 µM (inactive)	> 100 µM (inactive)		> 100 µM (inactive)	> 100 µM (inactive)	> 100 µM (inactive)	> 100 µM (inactive)	> 100 µM (inactive)	> 100 µM (inactive)	> 100 µM (inactive)
Cc1cc(N(CCC#N)CCC#N)ccc1/C=C(\NC(=O)/C=C/c1ccccc1)C(=O)Nc1ccc(Cl)cc1	> 36.5 µM (inactive)	> 100 µM (inactive)	> 28.3 µM (inactive)	5.58 µM (inactive)	4.33 µM (inactive)	5.41 µM (inactive)	11.7	> 100 µM (inactive)	27 µM (inactive)	> 63.1 µM (inactive)	52.4 µM (inactive)	> 26.2 µM (inactive)	0.586 µM (active)	4.86 µM (inactive)	6.81 µM (inactive)	> 100 µM (inactive)	> 59.6 µM (inactive)		12.3 µM (inactive)	11 µM (inactive)
CC(C)[C@@H](C(=O)N1CCC[C@H]1C(=O)OCc1ccccc1)N(C)C(=O)[C@H](C(C)C)N(C)C(=O)[C@H](Cc1ccccc1)N(C)C(=O)[C@H](NC(=O)OC(C)(C)C)C(C)C (Boc-[dV][NMeF][NMeV][NMeV]P-OBn)	> 50 µM (inactive)	> 50 µM (inactive)	> 50 µM (inactive)	25.4 µM (inactive)	> 50 µM (inactive)	> 50 µM (inactive)	17.3	> 50 µM (inactive)	> 50 µM (inactive)	> 50 µM (inactive)	> 50 µM (inactive)	> 50 µM (inactive)	> 50 µM (inactive)	> 50 µM (inactive)	> 50 µM (inactive)	> 50 µM (inactive)	> 50 µM (inactive)	18.6 µM (inactive)	> 50 µM (inactive)	> 50 µM (inactive)
